In patent publication US9078874B2, “Composition and method for treating cognitive impairments in down syndrom subjects” (Centre National De La Recherche Scientifique—CNRS, priority 2009, dated 2015):
Read-outs that look alike come from different tables or passages of the source.

How the values were obtained:
euploid and Ts65Dn mice [1] = test: Morris water maze (MWM) spatial reference memory; type: in vivo
Method: Spatial reference memory was evaluated using the standard Morris water maze task. The maze was similar to the one described above (dose-response effects of α5IA). The platform was submerged 1 cm below water surface in the center of one of the pool quadrants. During spatial allocentric training the non-visible platform remained at a constant position throughout the trials with numerous external visual indices available to facilitate formation of spatial cognitive maps.
A total of 32 mice (16 euploid and 16 Ts65Dn mice) were used. Animals were randomly and equally distributed into 4 groups. Each day mice were injected with placebo or α5IA (5 mg/kg) 30 min before the onset of behavioral testing.
On the first day, mice were submitted to a single habituation trial with the non-visible platform available. On the following six days, spatial allocentric training consisted in daily sessions (2 trials per session). Start positions varied pseudo-randomly among the four cardinal points. Mean inter-trial interval was 2 hours. During the habituation and spatial training phases each trial ended when the animal reached the platform. A 90 sec cut-off was used, after which mice were manually guided to the platform. Once on the platform, animals were given a 20 sec rest before being replaced in their cage. Twenty-four hours after the last training session, a probe trial was performed (Day 8) during which the platform was removed and mice allowed to freely navigate for 60 sec.
Following evaluation of spatial learning and memory skills, visual ability of mice was controlled using a non-spatial training procedure. Platform location was directly cued by a white styrene ball placed 12 cm above water surface and access to external indices was prevented by a black curtain surrounding the pool. Testing in this visually guided navigation task consisted of 4 daily sessions for 4 consecutive days as described above.
All data were collected, analyzed and stored using a video-tracking system (Ethovision, Noldus, Wageningen, The Netherlands).
During probe trial one supplementary (euploid) mouse was removed from analysis for the same reason.

receptor = details: rats, 3 mg/kg, cited from earlier work
euploid and Ts65Dn mice [2] = test: Pro-convulsant effects after pentylenetetrazol (45 mg/kg); type: in vivo; details: mouse, in vivo, 50 min
Method: For testing the pro-convulsant effects of α5IA, a sub-convulsant dose of pentylenetetrazole (45 mg/kg i.p.) that induces myoclonic convulsions in about 50% of mice was injected i.p. 20 min after injection of α5IA (50 mg/kg) or placebo.
The proconvulsant action of the α5IA was measured after injection of a subconvulsive dose of pentylenetetrazole. Mice were injected with either vehicle or the α5IA (50 mg/kg i.p) and 20 min later they received an intraperitoneal injection of 45 mg/kg of pentylenetetrazole. […] Six to 7 mice were used for each condition. The latency to the first myoclonic jerk episode and the convulsion grade were recorded during a 1200-s period of observation. Four grades were empirically determined: Grade 0: no effect; grade 1: tail up and curved; grade 2: reversed tail and convulsive shivers; grade 3: myoclonic convulsions.
We then tested the proconvulsant effect of α5IA by injecting it (50 mg/kg) 20 min before a sub-convulsant dose of pentylenetetrazol (45 mg/kg) that induces myoclonic convulsions in about 50% of mice.

[3] = tested on: GABAA receptors containing either an α1, α2, α3 or α5 subunit; details: cited from earlier work
rats = details: 240 mg/kg for 5 weeks; cited from earlier work
euploid and Ts65Dn mice [4] = test: Novel object recognition (NOR) task; type: in vivo
Method: The testing protocol is a variant of the testing method according to Fernandez et al. 2007. The Object recognition protocol used to study learning and memory was performed on a 10 minutes period between the first presentation of the objects and the change of one object. Euploid and Ts65Dn mice were tested with or without α5IA treatment. The apparatus consisted of a black square arena (50×50 cm) located in a room under weak controlled luminosity (4-6 Lux) and constant 60 dB white noise. The first day, all mice (16 euploid and 16 Ts65Dn mice) were handled by the experimenter in the animal facility 2×3 min to familiarize them with human contact. On day 2, mice were placed for 20 min in the empty arena for getting used to the apparatus and test room. On day 3, four identical objects were placed symmetrically in the corners of the arena, 14 cm from the side walls. […]
During all open field sessions, mice were monitored using a videotracking system (Any-Maze™). Object exploration was manually scored with an ethological keyboard and defined as the orientation of the nose to the object at a distance<6 cm. […]
For the retention phase, the percent of time exploring familiar vs. novel objects was calculated to assess memory performance (a score of 50% corresponding to equal exploration times of the two objects indicated no object memory). […]
Discrimination ratio was calculated using the formula: […]

[5] = Ts65Dn mice, 5 mg/kg i.p. 30 min before each session

Cc1cc(-c2nnc3c4ccccc4c(OCc4cn(C)nn4)nn23)no1 [α5IA, 3-(5-methylisoxazol-3-yl)-6-[(1-methyl-1,2,3-triazol-4-yl)methyloxy]-1,2,4-triazolo[3,4-a]phthalazine]
hits (reaching the platform before 90 sec) (euploid and Ts65Dn mice [1]; [5]): reversed after treatment | learning index (euploid and Ts65Dn mice [1]; [5]): corrected by treatment | learning performance in the MWM (euploid and Ts65Dn mice [1]; control euploid mice, 5 mg/kg): did not observe a significant promnesiant effect | thigmotaxy, significance of the effect (euploid and Ts65Dn mice [1]; euploid mice (p=0.06), 5 mg/kg): just failed to reach statistical significance | retention performance during the probe test (24 hours) (euploid and Ts65Dn mice [1]; euploid or Ts65Dn mice, 5 mg/kg): did not significantly increase retention performance | performance in the cued (visible platform) version of the MWM (euploid and Ts65Dn mice [1]; p>0.16, 5 mg/kg): did not find any effect | thigmotaxy (wall-seeking behavior) (euploid and Ts65Dn mice [1]; particularly in Ts65Dn mice (p<0.001), 5 mg/kg): strongly decreased | receptor occupancy (receptor; after 2 h): 80% | receptor occupancy (receptor; after 8 h): 60% | Convulsant mice rate (euploid and Ts65Dn mice [2]; Ts65Dn): 4/7 | Convulsant mice rate (euploid and Ts65Dn mice [2]; euploid): 3/6 | binding affinity at the benzodiazepine binding site [3]: equal affinity | renal toxicity (rats): renal pyelitis and papillitis associated with crystals formation | object recognition performance compared to wild-type mice receiving a placebo (euploid and Ts65Dn mice [4]; Ts65Dn mice): above-normal object recognition performance | recognition performance (euploid and Ts65Dn mice [4]; i.p. 5 mg/kg, 30 min before acquisition, both euploid and Ts65Dn mice): largely improved their recognition performance
